This is an account of results in PMC8615975, “Design of α/β-Hybrid Peptide Ligands of α4β1 Integrin Equipped with a Linkable Side Chain for Chemoselective Biofunctionalization of Microstructured Materials” (Biomedicines, 2021).

Data set [1] concerns the target T1, α4β1 integrin (Homo sapiens, UniProt P05556+P13612).
T1 construct: Jurkat E6.1 cells (expressing α4β1) were maintained as a stationary suspension culture; host or cells: Jurkat E6.1
Nature of the data set: Inhibition of α4β1 integrin-mediated Jurkat cell adhesion to FN. As to conditions: for ability to modulate α4β1 integrin-mediated cell adhesion (in words): Jurkat cell adhesion to FN; for IC50: Jurkat cell adhesion to plates coated with FN (10 μg/mL), mean ± SD, three experiments in quadruplicate. The format is cell-based. As to the method: All cell lines were purchased from the ATCC (Rockville, MD, USA). Jurkat E6.1 cells (expressing α4β1) were maintained as a stationary suspension culture in RPMI-1640 (Life Technologies, Carlsbad, CA, USA) supplemented with 2 mM glutamine and 10% FBS (fetal bovine serum). HEK293 cells were routinely cultured in EMEM (Lonza, Basel, Switzerland) enriched with 10% FBS, L-glutamine and nonessential amino acids. Cells were kept at 37 °C under a 5% CO2 humidified atmosphere.
The adhesion assays were performed as previously described. Briefly, black 96-well plates (Corning Costar, Celbio, Milan, Italy) were coated with FN (10 μg/mL). Cells were counted, stained with CellTracker green CMFDA (12.5 μM, 30 min at 37 °C, Life Technologies), and after three washes with 1% BSA (bovine serum albumin) in HBSS (Life Technologies) were preincubated with increasing concentrations of the new peptide ligands (10^−10–10^−4 M) or with the vehicle (methanol) for 30 min at 37 °C. Afterwards, cells were plated (500,000/well) on coated wells and incubated for 30 min at 37 °C. After three washes, adhered cells were lysed with 0.5% Triton X-100 in PBS (30 min at 4 °C) and fluorescence was measured (Ex485 nm/Em535 nm) in an EnSpire Multimode Plate Reader (PerkinElmer, Waltham, MA, USA).
The number of adherent cells was obtained by comparison with a standard curve prepared in the same plate using diverse concentrations of cells. Experiments were carried out in quadruplicate and repeated at least three times. Data analysis and IC50 values were calculated using GraphPad Prism 6.0 (GraphPad Software, San Diego, CA, USA).

Data set [2] can be described thus: Enzymatic stability in mouse serum. The format is in vitro ADME. As to conditions: 37 °C, HPLC; for amount of intact peptide: after 3 h. As to the method:
Incubations were carried out at 37 °C. Aliquots of 20 µL were sampled over 180 min from the mixtures and the samples were diluted with 90 µL of glacial ACN for precipitating proteins. The mixtures were diluted with 90 µL of 0.5% AcOH and centrifuged (13,000× g, 15 min). The supernatants were collected and the amount of intact peptides was determined by RP HPLC. The experiments were performed in triplicate and repeated three times.

On the set-up of data set [3]: method as in PMID 17523052, PMID 11682211. The conditions noted are these: heparinized blood, plasma and rat liver, lung and intestinal homogenates; cited from earlier work.
In a further data set the test system is isolated α4β1 integrin. Set-up: method as in PMID 30051467. As to conditions: read-out: IC50, affinity for the isolated α4β1 integrin; cited from earlier work.
For data set [4], the system named is α4β1 integrin. Set-up: method as in PMID 30051467. The conditions noted are these: VCAM-1; read-out: IC50, adhesion of α4β1 integrin-expressing cells to VCAM-1; cited from earlier work.
On the set-up of data set [5]: method as in PMID 30051467. The conditions noted are these: incubation in mouse serum; cited from earlier work.

*1 amine or outer side, *2 acyl side, *3 side chain or, on linkers, in order; H or OH if unused. Where a SMILES comes first, the peptide text is derived from it. [ ]: non-standard residue; d: D form. The star is where a group is joined. X1 = O=C(Cc1ccc(N[*:1])cc1)[*:2]; NH(2-Me-phenyl) = Cc1ccccc1N*; CO = O=C([*:1])[*:2]

T1 sequence (P13612 34-1032): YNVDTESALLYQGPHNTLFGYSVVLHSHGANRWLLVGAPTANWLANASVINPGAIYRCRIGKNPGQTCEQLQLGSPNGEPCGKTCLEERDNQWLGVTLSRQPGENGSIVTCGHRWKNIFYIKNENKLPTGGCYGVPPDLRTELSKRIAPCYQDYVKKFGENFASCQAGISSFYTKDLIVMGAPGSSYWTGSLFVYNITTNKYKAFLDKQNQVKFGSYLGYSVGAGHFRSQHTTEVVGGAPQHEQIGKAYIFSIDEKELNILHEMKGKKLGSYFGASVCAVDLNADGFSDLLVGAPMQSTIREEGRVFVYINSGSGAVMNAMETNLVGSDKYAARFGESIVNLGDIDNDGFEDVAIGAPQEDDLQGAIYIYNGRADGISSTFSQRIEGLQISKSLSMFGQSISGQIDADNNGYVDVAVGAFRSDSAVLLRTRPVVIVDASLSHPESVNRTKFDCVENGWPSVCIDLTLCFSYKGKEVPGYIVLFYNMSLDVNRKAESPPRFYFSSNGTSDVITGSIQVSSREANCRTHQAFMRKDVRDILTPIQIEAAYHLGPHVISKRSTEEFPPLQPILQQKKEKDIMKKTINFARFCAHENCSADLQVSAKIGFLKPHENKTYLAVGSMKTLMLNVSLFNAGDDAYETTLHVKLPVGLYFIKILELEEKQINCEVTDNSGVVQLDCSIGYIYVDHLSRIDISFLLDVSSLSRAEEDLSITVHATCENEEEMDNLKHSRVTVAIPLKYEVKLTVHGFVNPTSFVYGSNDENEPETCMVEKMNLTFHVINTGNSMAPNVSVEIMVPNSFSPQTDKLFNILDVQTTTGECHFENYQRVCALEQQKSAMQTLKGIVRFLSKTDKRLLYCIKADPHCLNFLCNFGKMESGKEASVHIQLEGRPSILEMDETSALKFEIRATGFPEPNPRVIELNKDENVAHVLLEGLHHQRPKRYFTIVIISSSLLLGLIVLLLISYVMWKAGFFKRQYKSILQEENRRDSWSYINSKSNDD
T1 sequence (P05556 21-798): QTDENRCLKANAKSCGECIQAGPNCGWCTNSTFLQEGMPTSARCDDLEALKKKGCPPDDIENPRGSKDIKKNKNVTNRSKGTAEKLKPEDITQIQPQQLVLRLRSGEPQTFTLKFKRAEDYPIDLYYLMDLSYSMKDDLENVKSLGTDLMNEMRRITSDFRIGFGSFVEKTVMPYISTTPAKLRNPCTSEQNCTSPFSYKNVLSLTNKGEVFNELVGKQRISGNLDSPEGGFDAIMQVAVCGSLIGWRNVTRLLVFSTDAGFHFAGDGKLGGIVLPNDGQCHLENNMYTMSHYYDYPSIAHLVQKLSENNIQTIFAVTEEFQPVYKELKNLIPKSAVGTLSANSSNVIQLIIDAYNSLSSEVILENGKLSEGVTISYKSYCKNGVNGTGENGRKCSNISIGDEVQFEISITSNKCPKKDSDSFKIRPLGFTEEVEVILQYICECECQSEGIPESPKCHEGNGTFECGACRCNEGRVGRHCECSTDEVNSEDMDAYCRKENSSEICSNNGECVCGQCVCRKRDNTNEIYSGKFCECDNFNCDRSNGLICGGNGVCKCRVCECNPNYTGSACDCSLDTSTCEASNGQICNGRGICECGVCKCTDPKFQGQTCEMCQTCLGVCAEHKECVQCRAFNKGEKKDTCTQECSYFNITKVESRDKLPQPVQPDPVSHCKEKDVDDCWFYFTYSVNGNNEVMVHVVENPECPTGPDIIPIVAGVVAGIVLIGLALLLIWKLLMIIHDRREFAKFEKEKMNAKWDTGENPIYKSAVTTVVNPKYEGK

`Cc1ccccc1NC(=O)Nc1ccc(CC(=O)NC[C@H](C)C(=O)NCC(=O)O)cc1` [Compound 9, MPUPA-β^2-homoAla-Gly-OH]: at α4β1 integrin [1], the “ability to modulate α4β1 integrin-mediated cell adhesion (in words)” value was “not able to modulate α4β1 integrin-mediated cell adhesion to a significant extent” and the IC50 (commonly the concentration at which inhibition is half-maximal) is greater than 5 µM.

In the case of `CC(=O)N[C@H](CNC(=O)Cc1ccc(NC(=O)Nc2ccccc2C)cc1)C(=O)NCC(=O)O` [Compound 14, MPUPA-Dap(Ac)-Gly-OH], on α4β1 integrin [1], the “ability to modulate α4β1 integrin-mediated cell adhesion (in words)” value is “inactive” and the IC50 was greater than 5 µM.

Take `Cc1ccccc1NC(=O)Nc1ccc(CC(=O)N[C@@H](CC(C)C)C(=O)N[C@@H](CC(=O)O)C(=O)N[C@H](C(=O)N2CCC[C@H]2C(=O)O)C(C)C)cc1` [BIO1211, MPUPA-Leu-Asp-Val-Pro-OH, reference compound] ({NH(2-Me-phenyl)-CO}-[X1]LDVP-OH): the “initial amount still present” value in data set [2] (after 1 h) is “about 10%”. In addition, the “stability in physiological conditions (in words)” value in data set [3] is reported as “poor stability”.

In the case of `CC(=O)N[C@@H](CNC(=O)Cc1ccc(NC(=O)Nc2ccccc2C)cc1)C(=O)NCC(=O)O` [Compound 13, MPUPA-(S)-Dap(Ac)-Gly-OH], on α4β1 integrin [1], the “ability to modulate α4β1 integrin-mediated cell adhesion (in words)” value is “submicromolar range” and inhibition was half-maximal at 0.236 ± 0.047 µM (IC50). Moreover, the “amount of intact peptide” value in data set [2] is recorded as roughly 91%.

`CCCNC(=O)[C@@H](CC(=O)NCC(=O)O)NC(=O)Cc1ccc(NC(=O)Nc2ccccc2C)cc1` [Compound 12, MPUPA-(R)-isoAsp(NHPr)-Gly-OH] yielded an IC50 at α4β1 integrin [1] of 0.0098 ± 0.0021 µM. Besides, the “amount of intact peptide” value in data set [2] is listed as “around 80%”.

On to `Cc1ccccc1NC(=O)Nc1ccc(CC(=O)N2CC[C@H](C(=O)NCC(=O)O)C2)cc1` [Compound 6], for which the IC50 is 8.3 nM in the data set with isolated α4β1 integrin and 5.04 nM with α4β1 integrin [4]. For the same molecule, the “enzymatic stability (in words)” value in data set [5] was “good enzymatic stability”.

In the case of `Cc1ccccc1NC(=O)Nc1ccc(CC(=O)N[C@@H](C)CC(=O)NCC(=O)O)cc1` [Compound 7, MPUPA-β^3-homoAla-Gly-OH], on α4β1 integrin [1], it took 4.06 ± 0.78 µM to reach half-maximal inhibition (IC50).

With `Cc1ccccc1NC(=O)Nc1ccc(CC(=O)NC[C@@H](C)C(=O)NCC(=O)O)cc1` [Compound 10, MPUPA-β^2-homoAla-Gly-OH], on α4β1 integrin [1], the “ability to modulate α4β1 integrin-mediated cell adhesion (in words)” value is on record as “not able to modulate α4β1 integrin-mediated cell adhesion to a significant extent” and the IC50 was greater than 5 µM.

Molecule `Cc1ccccc1NC(=O)Nc1ccc(CC(=O)N[C@H](C)CC(=O)NCC(=O)O)cc1` [Compound 8, MPUPA-β^3-homoAla-Gly-OH] displayed an IC50 on α4β1 integrin [1] greater than 5 µM.

Consider `CCCNC(=O)[C@H](CC(=O)NCC(=O)O)NC(=O)Cc1ccc(NC(=O)Nc2ccccc2C)cc1` [Compound 11, MPUPA-isoAsp(NHPr)-Gly-OH], for which the IC50 on α4β1 integrin [1] was greater than 5 µM.
